Laboratory results reported in patent US6867192B1, “Compounds useful in the treatment of inflammatory diseases” (priority 1998, dated 2005).
Values after ≈ are worked out from the molar mass of the structure shown. Like-named read-outs stand apart in the source and are kept apart here.

How the values were obtained:
CD4+ T-cells = experiment: CD3/VCAM-1 co-stimulation of T-lymphocyte proliferation; type: cell-based; conditions: T-cell; [3H] thymidine incorporation, 4 days incubation, anti-CD3/zzVCAM-1 coated plates
Experimental: (2) CD3/VCAM-1 Co-stimulation of T-Lymphocyte Proliferation
CD4^+ T-cells were purified from peripheral blood mononuclear cells by negative selection with anti-CD14, CD19, CD16 and HLA.DR antibodies and Dynal beads. Flat bottomed 96-well tissue culture plates were coated with 1 μg ml^−1 anti-CD3 antibody (OKT3), washed and incubated with human IgG and zzVCAM-1 fusion proteins. The CD4^+ T cells (prepared in RPMI-1640 medium supplemented with 10% FCS, penicillin or streptomycin and L-glutamine) were added to the coated plates (1×10^5 cells well^−1) and incubated in the presence or absence of various doses of compound or blocking antibodies for 4 days. Radiolabelled thymidine [^3H] was added for the final 6 hours of incubation and the cells were then harvested using a Skatron plate harvester. Incorporation of the [^3H] label was measured as an indicator of T cell proliferation using a β plate counter. Compounds were assayed in triplicate and data was collected in an analogous procedure to that described for Assay (1).

[1] = tested on: ovalbumin sensitised guinea pigs; experiment: Inhibition of eosinophil infiltration and hyper-reactivity in the guinea pig; type: in vivo; conditions: Cavia porcellus, Eosinophil, inhaled or nasal, 24 h, 0.5 hours before and 6 hours after antigen challenge; for inhibition in vivo at 0.0002 mg/kg: intratracheal dose 0.2 μg/kg body weight; for inhibition in vivo at 0.002 mg/kg: intratracheal dose 2 μg/kg body weight
Experimental: (3) Inhibition of Eosinophil Infiltration and Hyper-Reactivity in the Guinea Pig
In a method based on that described by Danahay et al., 1997, ovalbumin sensitised guinea pigs were dosed with mepyramine (30 mg kg^−1 ip) to protect against anaphylactic bronchospasm. Test compounds, dissolved in 0.9% saline, were given by the inhaled route (30 minutes breathing of an aerosol of the compound) or the intra-tracheal route, 30 minutes before and 6 hours after ovalbumin challenge (10 minutes breathing of an aerosol generated from a 0.5% solution of ovalbumin). Hyper-reactivity of the airways to the thromboxane mimetic U46619, was measured 24 hours after ovalbumin challenge in un-restrained animals using a whole body plethysmograph (Buxco Ltd., USA). The guinea pigs were then sacrificed and the lungs lavaged. Total and differential leukocyte counts were then obtained for the bronchoalveolar lavage fluid and the percentage reduction in eosinophil accumulation determined (Sanjar et al., 1992). Dexamethasone (200 μg kg^−1 i.t) was used as a positive control. Data was presented as the inhibitory effect of the specified dose expressed as a percentage of the vehicle control response.

[2] = target: T1, integrin VLA-4, expressed on the Jurkat J6 (human lymphoblast cell line) cell membrane with VCAM-1 (Homo sapiens, UniProt P05556+P13612); experiment: Jurkat J6/VCAM-1 adhesion assay; type: cell-based; conditions: Jurkat J6 cell adhesion to VCAM-1, 1 mM MnCl2; mean of n experiments
T1 construct: integrin VLA-4, expressed on the Jurkat J6 (human lymphoblast cell line) cell membrane; endogenous in cells; host or cells: Jurkat J6 cells (integrin). zzVCAM-1 was made in house in Drosophila melanogaster S2 cells
Procedure, shortened: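 Jurkat J6 cells loaded with BCECF-AM were added with compound in HBSS with 1 mM MnCl2 to plates coated with IgG-captured zzVCAM-1 (seven-domain, S2-expressed) and left to adhere for 30 min at 37 °C. After washing, fluorescence was read. pIC50 came from a four-parameter fit between no compound and 2 mM EDTA.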

Solubility in water = type: physicochemical
[3] = airway hyper-reactivity to U46619, read-out: % Inhibition Hyper-reactivity
[4] = read-out: % Inhibition Eosinophil Accumulation

T1 sequence (P13612 34-1032): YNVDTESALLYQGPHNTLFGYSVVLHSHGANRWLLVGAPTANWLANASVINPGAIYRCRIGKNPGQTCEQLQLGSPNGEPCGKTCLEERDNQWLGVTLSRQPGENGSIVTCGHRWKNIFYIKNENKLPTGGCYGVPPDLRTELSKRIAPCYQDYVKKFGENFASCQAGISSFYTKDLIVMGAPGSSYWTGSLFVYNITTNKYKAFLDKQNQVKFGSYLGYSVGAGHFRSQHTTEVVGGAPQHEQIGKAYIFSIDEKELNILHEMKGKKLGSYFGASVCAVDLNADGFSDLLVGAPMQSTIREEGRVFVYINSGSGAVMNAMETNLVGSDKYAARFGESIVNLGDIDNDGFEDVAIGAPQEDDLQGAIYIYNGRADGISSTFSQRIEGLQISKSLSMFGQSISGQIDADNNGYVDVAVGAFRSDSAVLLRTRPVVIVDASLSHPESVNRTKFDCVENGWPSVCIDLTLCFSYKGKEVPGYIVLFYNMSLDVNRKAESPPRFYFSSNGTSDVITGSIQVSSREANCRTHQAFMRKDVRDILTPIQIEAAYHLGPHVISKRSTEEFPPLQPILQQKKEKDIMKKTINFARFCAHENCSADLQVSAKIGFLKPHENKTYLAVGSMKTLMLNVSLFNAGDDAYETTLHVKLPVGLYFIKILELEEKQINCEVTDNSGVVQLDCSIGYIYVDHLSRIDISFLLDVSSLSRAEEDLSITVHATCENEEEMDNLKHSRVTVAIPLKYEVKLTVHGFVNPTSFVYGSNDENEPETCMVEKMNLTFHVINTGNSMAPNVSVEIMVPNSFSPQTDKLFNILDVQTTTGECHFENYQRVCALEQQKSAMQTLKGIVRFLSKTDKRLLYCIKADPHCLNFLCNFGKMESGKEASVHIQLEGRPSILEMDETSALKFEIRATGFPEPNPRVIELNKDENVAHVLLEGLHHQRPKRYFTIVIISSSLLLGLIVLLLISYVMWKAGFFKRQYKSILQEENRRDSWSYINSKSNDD
T1 sequence (P05556 21-798): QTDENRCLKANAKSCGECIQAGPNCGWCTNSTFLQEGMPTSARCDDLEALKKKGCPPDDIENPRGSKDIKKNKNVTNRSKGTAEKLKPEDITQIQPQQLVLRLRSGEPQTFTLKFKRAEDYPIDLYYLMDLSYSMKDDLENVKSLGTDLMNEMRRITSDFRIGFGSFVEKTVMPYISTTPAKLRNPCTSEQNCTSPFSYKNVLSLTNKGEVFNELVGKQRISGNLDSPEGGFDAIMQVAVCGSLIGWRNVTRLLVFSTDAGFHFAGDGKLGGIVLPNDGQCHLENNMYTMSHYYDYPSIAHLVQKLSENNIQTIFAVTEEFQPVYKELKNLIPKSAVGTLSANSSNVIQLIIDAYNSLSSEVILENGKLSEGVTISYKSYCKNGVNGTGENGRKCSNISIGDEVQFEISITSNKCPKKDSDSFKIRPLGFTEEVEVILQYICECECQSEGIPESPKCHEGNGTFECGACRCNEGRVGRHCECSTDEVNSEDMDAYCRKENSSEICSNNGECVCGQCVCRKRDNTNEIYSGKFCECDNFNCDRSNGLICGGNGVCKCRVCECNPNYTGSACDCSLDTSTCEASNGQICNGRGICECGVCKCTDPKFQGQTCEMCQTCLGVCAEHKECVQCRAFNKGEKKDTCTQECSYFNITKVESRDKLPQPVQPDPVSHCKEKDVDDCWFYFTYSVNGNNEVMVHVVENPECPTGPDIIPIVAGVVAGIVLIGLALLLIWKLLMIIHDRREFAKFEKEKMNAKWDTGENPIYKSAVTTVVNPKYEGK

| Compound | IC50 (CD4+ T-cells) [nM] | inhibition in vivo at 0.0002 mg/kg [1, 3] [%] | inhibition in vivo at 0.0002 mg/kg [1, 4] [%] | inhibition in vivo at 0.002 mg/kg [1, 3] [%] | inhibition in vivo at 0.002 mg/kg [1, 4] [%] | IC50 [2] [nM] | solubility (Solubility in water) [µg/mL] |
| --- | --- | --- | --- | --- | --- | --- | --- |
| CC(=O)N1CCN(C(=O)Oc2ccc(C[C@H](NC(=O)[C@H](CC(C)C)NC(=O)COc3ccccc3C(C)(C)C)C(=O)O)cc2)CC1 [Example 16, (2S)-3-(4-{[(4-Acetyl-1-piperazinyl)carbonyl]oxy}phenyl)-2-{[(2S)-2-({2-[2-(tert-butyl)phenoxy]acetyl}amino)-4-methylpentanoyl]amino}propanoic acid] | 39.8 | 80 | 62 | 95 | 78 | 3.24 | – |
| CC(=O)N1CCN(C(=O)Oc2ccc(C[C@H](NC(=O)[C@H](CC(C)C)NC(=O)COc3ccccc3C)C(=O)O)cc2)CC1 [Example 17, (2S)-3-(4-{[(4-Acetyl-1-piperazinyl)carbonyl]oxy}phenyl)-2-[((2S)-4-methyl-2-{[2-(2-methylphenoxy)acetyl]amino}pentanoyl)amino]propanoic acid] | 31.6 | 58 | 68 | 88 | 61 | 2.57 | – |
| CC(C)C[C@H](NC(=O)COc1ccccc1C(C)(C)C)C(=O)N[C@@H](Cc1ccc(OC(=O)N2CCN(C(=O)c3ccccc3)CC2)cc1)C(=O)O [Example 20, (2S)-3-(4-{[(4-Benzoyl-1-piperazinyl)carbonyl]oxy}phenyl)-2-{[(2S)-2-({2-[2-(tert-butyl)phenoxy]acetyl}amino)-4-methylpentanoyl]amino}propanoic acid] | 126 | 85 | 67 | 100 | 79 | 14.8 | – |
| Cc1ccccc1OCC(=O)N[C@@H](CC(C)C)C(=O)N[C@@H](Cc1ccc(OC(=O)N2CCN(C(=O)c3ccccc3)CC2)cc1)C(=O)O [Example 21, (2S)-3-(4-{[(4-Benzoyl-1-piperazinyl)carbonyl]oxy}phenyl)-2-[((2S)-4-methyl-2-{[2-(2-methylphenoxy)acetyl]amino}pentanoyl)amino]propanoic acid] | 126 | 82 | 49 | 85 | 79 | 3.89 | – |
| CC(C)C[C@H](NC(=O)COc1ccccc1I)C(=O)N[C@@H](Cc1ccc(OC(=O)N2CCOCC2)cc1)C(=O)O [Example 23, (2S)-2-[((2S)-2-{[2-(2-Iodophenoxy)acetyl]amino}-4-methylpentanoyl)amino]-3-{4-[(4-morpholinylcarbonyl)oxy]phenyl}propanoic acid] | 126 | – | – | 79 | 51 | 4.47 | – |
| CC(C)C[C@H](NC(=O)COc1ccccc1C(C)(C)C)C(=O)N[C@@H](Cc1ccc(OC(=O)N2CCOCC2)cc1)C(=O)O [Example 24, (2S)-2-{[(2S)-2-({2-[2-(Tert-butyl)phenoxy]acetyl}amino)-4-methylpentanoyl]amino}-3-{4-[(4-morpholinylcarbonyl)oxy]phenyl}propanoic acid] | 79.4 | 44 | 26 | 85 | 77 | 6.03 | – |
| Cc1ccccc1OCC(=O)N[C@@H](CC(C)C)C(=O)N[C@@H](Cc1ccc(OC(=O)N2CCC(C(N)=O)CC2)cc1)C(=O)O [Example 27, (2S)-3-[4-({[4-(Aminocarbonyl)-1-piperidinyl]carbonyl}oxy)phenyl]-2-[((2S)-4-methyl-2-{[2-(2-methylphenoxy)acetyl]amino}pentanoyl)amino]propanoic acid] | 31.6 | 88 | 58 | 87 | 90 | 2.82 | 10 (≈ 16.8 µM) |
| CC(C)C[C@H](NC(=O)c1cccc2c1oc1ccccc12)C(=O)N[C@@H](Cc1ccc(OC(=O)N2CCC(C(N)=O)CC2)cc1)C(=O)O [Example 28, (2S)-3-[4-({[4-(Aminocarbonyl)-1-piperidinyl]carbonyl}oxy)phenyl]-2-({(2S)-2-[(dibenzo[b,d]furan-4-ylcarbonyl)amino]-4-methylpentanoyl}amino)propanoic acid] | 158 | 70 | 3 | 47 | 62 | 3.47 | – |
